Data published in patent publication US12692269B2, “Therapeutic compounds” (Genentech, Inc., priority 2019, dated 2026).

Legend:
Format in all cases: binding
TEAD1 YAP50-100 = TEAD1 YAP50-100 (Homo sapiens, UniProt P28347); assay: TEAD1-YAP HTRF (TR-FRET) protein-protein interaction assay; settings: TEAD1, YAP peptide 50-100, HTRF; for EC50: read-out: TEAD1 YAP50-100 HTRF combined: EC50
Outline: (§1)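 Compounds were given 30 min to bind Eu anti-His-labelled TEAD (His-tagged, aa 217-447) before streptavidin-XL665-coupled biotin-YAP 50-100 or biotin-TAZ 13-57 peptide went in for a further 60 min at room temperature. Loss of 665/615 nm TR-FRET ratio gave IC50/EC50 via four-parameter curve fit.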

TEAD2 YAP50-100 = TEAD2 YAP50-100 (Homo sapiens, UniProt Q15562); assay: TEAD2-YAP HTRF (TR-FRET) protein-protein interaction assay; settings: TEAD2, YAP peptide 50-100, HTRF; for EC50: read-out: TEAD2 YAP50-100 HTRF combined: EC50
Outline: as §1

TEAD3 YAP50-100 = TEAD3 YAP50-100 (Homo sapiens, UniProt Q99594); assay: TEAD3-YAP HTRF (TR-FRET) protein-protein interaction assay; settings: TEAD3, YAP peptide 50-100, HTRF; for EC50: read-out: TEAD3 YAP50-100 HTRF combined: EC50
Outline: as §1

TEAD4 YAP50-100 = TEAD4 YAP50-100 (Homo sapiens, UniProt Q15561); assay: TEAD4-YAP HTRF (TR-FRET) protein-protein interaction assay; settings: TEAD4, YAP peptide 50-100, HTRF; for EC50: read-out: TEAD4 YAP50-100 HTRF combined: EC50
Outline: as §1

[1] = target: TEAD1 TAZ (amino acids 13-57) (Homo sapiens, UniProt P28347); assay: TEAD1-TAZ HTRF (TR-FRET) protein-protein interaction assay; settings: for TEAD1 TAZ HTRF combined: Max % Inhibition: TEAD1, TAZ peptide; for EC50: TEAD1-TAZ HTRF, TR-FRET 665 nm/615 nm, read-out: TEAD1 TAZ HTRF combined: EC50
Outline: as §1

[2] = target: TEAD2 TAZ (amino acids 13-57) (Homo sapiens, UniProt Q15562); assay: TEAD2-TAZ HTRF (TR-FRET) protein-protein interaction assay; settings: for TEAD2 TAZ HTRF combined: Max % Inhibition: TEAD2, TAZ peptide; for EC50: TEAD2-TAZ HTRF, TR-FRET 665 nm/615 nm, read-out: TEAD2 TAZ HTRF combined: EC50
Outline: as §1

[3] = target: TEAD3 TAZ (amino acids 13-57) (Homo sapiens, UniProt Q99594); assay: TEAD3-TAZ HTRF (TR-FRET) protein-protein interaction assay; settings: for TEAD3 TAZ HTRF combined: Max % Inhibition: TEAD3, TAZ peptide; for EC50: TEAD3-TAZ HTRF, TR-FRET 665 nm/615 nm, read-out: TEAD3 TAZ HTRF combined: EC50
Outline: as §1

[4] = target: TEAD4 TAZ (amino acids 13-57) (Homo sapiens, UniProt Q15561); assay: TEAD4-TAZ HTRF (TR-FRET) protein-protein interaction assay; settings: for TEAD4 TAZ HTRF combined: Max % Inhibition: TEAD4, TAZ peptide; for EC50: TEAD4-TAZ HTRF, TR-FRET 665 nm/615 nm, read-out: TEAD4 TAZ HTRF combined: EC50
Outline: as §1

TEAD2 TAZ (amino acids 13-57), sequence (Q15562 217-447): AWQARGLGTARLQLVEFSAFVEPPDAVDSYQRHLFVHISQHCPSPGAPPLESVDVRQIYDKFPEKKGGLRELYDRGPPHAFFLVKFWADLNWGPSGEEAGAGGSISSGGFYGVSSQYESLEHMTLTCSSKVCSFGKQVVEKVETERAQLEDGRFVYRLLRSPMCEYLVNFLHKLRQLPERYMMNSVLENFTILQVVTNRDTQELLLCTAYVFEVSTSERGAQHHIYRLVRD
TEAD2 YAP50-100, sequence (Q15562 217-447): as above
TEAD4 YAP50-100, sequence (Q15561 217-434 limits assumed): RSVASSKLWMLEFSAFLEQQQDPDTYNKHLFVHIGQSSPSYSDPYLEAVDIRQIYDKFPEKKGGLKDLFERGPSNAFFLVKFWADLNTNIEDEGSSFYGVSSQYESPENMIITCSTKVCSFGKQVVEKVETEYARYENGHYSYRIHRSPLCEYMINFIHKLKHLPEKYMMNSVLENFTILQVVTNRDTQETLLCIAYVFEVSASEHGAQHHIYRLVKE
TEAD4 TAZ (amino acids 13-57), sequence (Q15561 217-434 limits assumed): as above
TEAD3 TAZ (amino acids 13-57), sequence (Q99594 173-435 limits assumed): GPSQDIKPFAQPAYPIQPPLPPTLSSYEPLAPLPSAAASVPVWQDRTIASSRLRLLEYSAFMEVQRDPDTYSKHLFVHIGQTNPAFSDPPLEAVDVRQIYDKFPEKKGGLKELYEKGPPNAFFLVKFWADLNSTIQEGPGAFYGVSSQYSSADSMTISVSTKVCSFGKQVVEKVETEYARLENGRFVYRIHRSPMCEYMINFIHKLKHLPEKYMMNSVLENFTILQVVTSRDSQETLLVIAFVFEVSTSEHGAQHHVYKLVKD
TEAD3 YAP50-100, sequence (Q99594 173-435 limits assumed): as above
TEAD1 TAZ (amino acids 13-57), sequence (P28347 167-426 limits assumed): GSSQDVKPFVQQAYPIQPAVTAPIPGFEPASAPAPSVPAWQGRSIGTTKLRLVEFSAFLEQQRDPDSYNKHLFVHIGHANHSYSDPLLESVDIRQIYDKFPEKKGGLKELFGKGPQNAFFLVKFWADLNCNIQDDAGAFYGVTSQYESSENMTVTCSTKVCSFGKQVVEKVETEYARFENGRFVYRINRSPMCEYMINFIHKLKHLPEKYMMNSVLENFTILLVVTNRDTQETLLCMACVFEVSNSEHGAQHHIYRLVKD
TEAD1 YAP50-100, sequence (P28347 167-426 limits assumed): as above

Cc1nccnc1-c1nn2c(=O)cc(-c3ccc(C4CCCCC4)cc3)[nH]c2c1C(=O)N1CC(CF)C1 [Compound 27, 5-(4-Cyclohexylphenyl)-3-(3-(fluoromethyl)azetidine-1-carbonyl)-2-(3-methylpyrazin-2-yl)pyrazolo[1,5-a]pyrimidin-7(4H)-one]
TEAD1 YAP50-100 HTRF combined: Max % Inhibition (TEAD1 YAP50-100): 75.0% | EC50 (TEAD1 YAP50-100): 30 nM | TEAD2 YAP50-100 HTRF combined: Max % Inhibition (TEAD2 YAP50-100): 68.6% | EC50 (TEAD2 YAP50-100): 10 nM | TEAD3 YAP50-100 HTRF combined: Max % Inhibition (TEAD3 YAP50-100): 74.6% | EC50 (TEAD3 YAP50-100): 100 nM | TEAD4 YAP50-100 HTRF combined: Max % Inhibition (TEAD4 YAP50-100): 54.1% | EC50 (TEAD4 YAP50-100): 30 nM | TEAD1 TAZ HTRF combined: Max % Inhibition [1]: 74.5% | EC50 [1]: 50 nM | TEAD2 TAZ HTRF combined: Max % Inhibition [2]: 67.9% | EC50 [2]: 10 nM | TEAD3 TAZ HTRF combined: Max % Inhibition [3]: 64.9% | EC50 [3]: 100 nM | TEAD4 TAZ HTRF combined: Max % Inhibition [4]: 53.1% | EC50 [4]: 30 nM

Cc1cncc(-c2nn3c(=O)cc(-c4ccc(C5CCCCC5)cc4)[nH]c3c2C(=O)N2CC(CF)C2)n1 [Compound 28, 5-(4-Cyclohexylphenyl)-3-(3-(fluoromethyl)azetidine-1-carbonyl)-2-(6-methylpyrazin-2-yl)pyrazolo[1,5-a]pyrimidin-7(4H)-one]
TEAD1 YAP50-100 HTRF combined: Max % Inhibition (TEAD1 YAP50-100): 76.0% | EC50 (TEAD1 YAP50-100): 40 nM | TEAD2 YAP50-100 HTRF combined: Max % Inhibition (TEAD2 YAP50-100): 59.5% | EC50 (TEAD2 YAP50-100): 20 nM | TEAD3 YAP50-100 HTRF combined: Max % Inhibition (TEAD3 YAP50-100): 68.0% | EC50 (TEAD3 YAP50-100): 100 nM | TEAD4 YAP50-100 HTRF combined: Max % Inhibition (TEAD4 YAP50-100): 43.5% | EC50 (TEAD4 YAP50-100): 130 nM | TEAD1 TAZ HTRF combined: Max % Inhibition [1]: 74.0% | EC50 [1]: 60 nM | TEAD2 TAZ HTRF combined: Max % Inhibition [2]: 66.5% | EC50 [2]: 10 nM | TEAD3 TAZ HTRF combined: Max % Inhibition [3]: 63.0% | EC50 [3]: 100 nM | TEAD4 TAZ HTRF combined: Max % Inhibition [4]: 41.0% | EC50 [4]: 120 nM

Cc1ccnc(-c2nn3c(=O)cc(-c4ccc(C5CCCCC5)cc4)[nH]c3c2C(=O)N2CC(CF)C2)c1C [Compound 29, 5-(4-Cyclohexylphenyl)-2-(3,4-dimethylpyridin-2-yl)-3-(3-(fluoromethyl)azetidine-1-carbonyl)pyrazolo[1,5-a]pyrimidin-7(4H)-one]
TEAD1 YAP50-100 HTRF combined: Max % Inhibition (TEAD1 YAP50-100): 78.0% | EC50 (TEAD1 YAP50-100): 60 nM | TEAD2 YAP50-100 HTRF combined: Max % Inhibition (TEAD2 YAP50-100): 70.0% | EC50 (TEAD2 YAP50-100): 20 nM | TEAD3 YAP50-100 HTRF combined: Max % Inhibition (TEAD3 YAP50-100): 72.5% | EC50 (TEAD3 YAP50-100): 180 nM | TEAD4 YAP50-100 HTRF combined: Max % Inhibition (TEAD4 YAP50-100): 54.0% | EC50 (TEAD4 YAP50-100): 30 nM | TEAD1 TAZ HTRF combined: Max % Inhibition [1]: 71.5% | EC50 [1]: 90 nM | TEAD2 TAZ HTRF combined: Max % Inhibition [2]: 70.0% | EC50 [2]: 20 nM | TEAD3 TAZ HTRF combined: Max % Inhibition [3]: 57.5% | EC50 [3]: 170 nM | TEAD4 TAZ HTRF combined: Max % Inhibition [4]: 50.5% | EC50 [4]: 20 nM

Cc1c(-c2nn3c(=O)cc(-c4ccc(C5CCCCC5)cc4)[nH]c3c2C(=O)N2CC(CF)C2)ncn1C [Compound 30, 5-(4-Cyclohexylphenyl)-2-(1,5-dimethyl-1H-imidazol-4-yl)-3-(3-(fluoromethyl)azetidine-1-carbonyl)pyrazolo[1,5-a]pyrimidin-7(4H)-one]
TEAD1 YAP50-100 HTRF combined: Max % Inhibition (TEAD1 YAP50-100): 71.0% | EC50 (TEAD1 YAP50-100): 70 nM | TEAD2 YAP50-100 HTRF combined: Max % Inhibition (TEAD2 YAP50-100): 61.5% | EC50 (TEAD2 YAP50-100): 10 nM | TEAD3 YAP50-100 HTRF combined: Max % Inhibition (TEAD3 YAP50-100): 65.0% | EC50 (TEAD3 YAP50-100): 90 nM | TEAD4 YAP50-100 HTRF combined: Max % Inhibition (TEAD4 YAP50-100): 45.0% | EC50 (TEAD4 YAP50-100): 180 nM | TEAD1 TAZ HTRF combined: Max % Inhibition [1]: 64.5% | EC50 [1]: 60 nM | TEAD2 TAZ HTRF combined: Max % Inhibition [2]: 61.5% | EC50 [2]: 10 nM | TEAD3 TAZ HTRF combined: Max % Inhibition [3]: 51.5% | EC50 [3]: 80 nM | TEAD4 TAZ HTRF combined: Max % Inhibition [4]: 31.5% | EC50 [4]: 120 nM

CCn1cnc(-c2nn3c(=O)cc(-c4ccc(C5CCCCC5)cc4)[nH]c3c2C(=O)N2CC(CF)C2)c1 [Compound 31, 5-(4-Cyclohexylphenyl)-2-(1-ethyl-1H-imidazol-4-yl)-3-(3-(fluoromethyl)azetidine-1-carbonyl)pyrazolo[1,5-a]pyrimidin-7(4H)-one]
TEAD1 YAP50-100 HTRF combined: Max % Inhibition (TEAD1 YAP50-100): 65.0% | EC50 (TEAD1 YAP50-100): 80 nM | TEAD2 YAP50-100 HTRF combined: Max % Inhibition (TEAD2 YAP50-100): 62.0% | EC50 (TEAD2 YAP50-100): 20 nM | TEAD3 YAP50-100 HTRF combined: Max % Inhibition (TEAD3 YAP50-100): 59.0% | EC50 (TEAD3 YAP50-100): 170 nM | TEAD4 YAP50-100 HTRF combined: Max % Inhibition (TEAD4 YAP50-100): 36.0% | EC50 (TEAD4 YAP50-100): 780 nM | TEAD1 TAZ HTRF combined: Max % Inhibition [1]: 60.5% | EC50 [1]: 120 nM | TEAD2 TAZ HTRF combined: Max % Inhibition [2]: 60.5% | EC50 [2]: 20 nM | TEAD3 TAZ HTRF combined: Max % Inhibition [3]: 49.5% | EC50 [3]: 210 nM | TEAD4 TAZ HTRF combined: Max % Inhibition [4]: 32.0% | EC50 [4]: 620 nM

Cn1cnc(-c2nn3c(=O)cc(-c4ccc(C5CCCCC5)cc4)[nH]c3c2C(=O)N2CC(CF)C2)c1 [Compound 32, 5-(4-Cyclohexylphenyl)-3-(3-(fluoromethyl)azetidine-1-carbonyl)-2-(1-methyl-1H-imidazol-4-yl)pyrazolo[1,5-a]pyrimidin-7(4H)-one]
TEAD1 YAP50-100 HTRF combined: Max % Inhibition (TEAD1 YAP50-100): 65.0% | EC50 (TEAD1 YAP50-100): 50 nM | TEAD2 YAP50-100 HTRF combined: Max % Inhibition (TEAD2 YAP50-100): 61.5% | EC50 (TEAD2 YAP50-100): 10 nM | TEAD3 YAP50-100 HTRF combined: Max % Inhibition (TEAD3 YAP50-100): 61.0% | EC50 (TEAD3 YAP50-100): 60 nM | TEAD4 YAP50-100 HTRF combined: Max % Inhibition (TEAD4 YAP50-100): 38.5% | EC50 (TEAD4 YAP50-100): 380 nM | TEAD1 TAZ HTRF combined: Max % Inhibition [1]: 59.5% | EC50 [1]: 50 nM | TEAD2 TAZ HTRF combined: Max % Inhibition [2]: 59.0% | EC50 [2]: 10 nM | TEAD3 TAZ HTRF combined: Max % Inhibition [3]: 49.5% | EC50 [3]: 60 nM | TEAD4 TAZ HTRF combined: Max % Inhibition [4]: 31.0% | EC50 [4]: 290 nM

CCN(C)C(=O)c1nn2c(=O)cc(-c3ccc(C4CCCCC4)cc3)[nH]c2c1C(=O)N1CC(CF)C1 [Compound 35, 5-(4-Cyclohexylphenyl)-N-ethyl-3-(3-(fluoromethyl)azetidine-1-carbonyl)-N-methyl-7-oxo-4,7-dihydropyrazolo[1,5-a]pynmidine-2-carboxamide]
TEAD1 YAP50-100 HTRF combined: Max % Inhibition (TEAD1 YAP50-100): 72.0% | EC50 (TEAD1 YAP50-100): 70 nM | TEAD2 YAP50-100 HTRF combined: Max % Inhibition (TEAD2 YAP50-100): 71.5% | EC50 (TEAD2 YAP50-100): 20 nM | TEAD3 YAP50-100 HTRF combined: Max % Inhibition (TEAD3 YAP50-100): 68.0% | EC50 (TEAD3 YAP50-100): 130 nM | TEAD4 YAP50-100 HTRF combined: Max % Inhibition (TEAD4 YAP50-100): 52.5% | EC50 (TEAD4 YAP50-100): 180 nM | TEAD1 TAZ HTRF combined: Max % Inhibition [1]: 59.0% | EC50 [1]: 80 nM | TEAD2 TAZ HTRF combined: Max % Inhibition [2]: 71.5% | EC50 [2]: 20 nM | TEAD3 TAZ HTRF combined: Max % Inhibition [3]: 57.0% | EC50 [3]: 150 nM | TEAD4 TAZ HTRF combined: Max % Inhibition [4]: 37.0% | EC50 [4]: 140 nM
